# Tested on: soybean (cv OAC Bayfield)
# Test: Growth and yield of soybean under field conditions (1999)
# Type: in vivo
# Procedure: The soybean experiment was conducted at the Lods Agronomy Research Centre, McGill University, Macdonald Campus, Ste-Anne-de-Bellevue, Quebec, Canada during the period June to September, 1999. A randomized complete block design with three blocks was followed. The plot size was 2×4 m with a row to row spacing of 25 cm and 10 cm between plants within a row. Seeds of soybean (cv OAC Bayfield), treated with commercial Bradyrhizobium japonicum inoculant (Bios Agriculture Inc., Quebec, Canada) at the rate of 3 g per kilogram of seed, were hand planted.
# At 25 days after planting twenty plants in each plot were randomly marked and sprayed until dripping with LCO solutions (10^−6, 10^−8 and 10^−10M) containing 0.02% Tween 20 with a hand sprayer. The plants on either side, within the row, of the marked plants were also sprayed. A second spray was carried out at flowering stage and a third spray at pod filling.
# As with the indoor experiments, photosynthetic readings were taken every day for five days after the application of LCO. For soybean additional developmental and agronomic data were collected. The first harvest was conducted at 25 days after the first spray treatment. Five plants were harvested from each plot and the following growth variables were analyzed: plant height, number of branches, number of leaves, leaf area, number of flower clusters, number of pods, number of nodules, dry weights of leaves, stem and roots. The final harvest was conducted after physiological maturity of the plants (Fehr et al., 1971); at this time the remaining fifteen treated plants from each plot were harvested and data on number of branches, number of pods, number of seeds and grain yield per plant was collected.
substance,measurement,setting,value
"Nod Bj V (C18:1, MeFeu)",Leaf area/Plant,"LCO 10^−6 M, field",2306.3 cm^2
same,No. Branches/Plant,"LCO 10^−6 M, field",4.2
same,No. Leaves/Plant,"LCO 10^−6 M, field",29.4
same,No. Nodules/Plant,"LCO 10^−6 M, field",63.5
same,No. Pod clusters/Plant,"LCO 10^−6 M, field",24.3
same,No. Pods/Plant,"LCO 10^−6 M, field",42.9
same,No. seeds/Plant,"LCO 10^−6 M, field",104.7
same,Plant height,"LCO 10^−6 M, field",78.5 cm
same,Root Dry weight/plant,"LCO 10^−6 M, field",3.0 gm
same,Seed yield/plant,"LCO 10^−6 M, field",22.1 gm
same,Shoot dry weight/Plant,"LCO 10^−6 M, field",24.7 gm
same,Leaf area/Plant,"LCO 10^−8 M, field",2120.4 cm^2
same,No. Branches/Plant,"LCO 10^−8 M, field",5.1
same,No. Leaves/Plant,"LCO 10^−8 M, field",25.4
same,No. Nodules/Plant,"LCO 10^−8 M, field",84.6
same,No. Pod clusters/Plant,"LCO 10^−8 M, field",24.8
same,No. Pods/Plant,"LCO 10^−8 M, field",42.4
same,No. seeds/Plant,"LCO 10^−8 M, field",106.3
same,Plant height,"LCO 10^−8 M, field",85.8 cm
same,Root Dry weight/plant,"LCO 10^−8 M, field",2.3 gm
same,Seed yield/plant,"LCO 10^−8 M, field",21 gm
same,Shoot dry weight/Plant,"LCO 10^−8 M, field",23.7 gm
same,Leaf area/Plant,"LCO 10^−10 M, field",1513.1 cm^2
same,No. Branches/Plant,"LCO 10^−10 M, field",3.4
same,No. Leaves/Plant,"LCO 10^−10 M, field",22.2
same,No. Nodules/Plant,"LCO 10^−10 M, field",68.3
same,No. Pod clusters/Plant,"LCO 10^−10 M, field",28.3
same,No. Pods/Plant,"LCO 10^−10 M, field",48.0
same,No. seeds/Plant,"LCO 10^−10 M, field",118.1
same,Plant height,"LCO 10^−10 M, field",83.5 cm
same,Root Dry weight/plant,"LCO 10^−10 M, field",2.3 gm
same,Seed yield/plant,"LCO 10^−10 M, field",22.6 gm
same,Shoot dry weight/Plant,"LCO 10^−10 M, field",19.8 gm
same,Plant height,"field 1999, LCO treatment vs control",not affected
same,grain yield enhanced by,"field, spray at seedling, flowering and podfilling stages",33-44%
